SMILES strings stand for the structures. Positions count from the first letter of the chain named. Entries after “also recorded” stand apart in the source; their conditions may differ.

Common to all, as to settings: wild type normalised to 100%
One assay has as its target T1, UL97 K355Q (Human cytomegalovirus, UniProt Q68101, K355Q).
T1 construct: PCR reaction to generate the full length UL97; honey bee melittin secretion signal (N); expressed in transfected cells; host or cells: Sf21 insect cells infected with recombinant baculovirus
T1 sequence (Q68101 1-707 K355Q): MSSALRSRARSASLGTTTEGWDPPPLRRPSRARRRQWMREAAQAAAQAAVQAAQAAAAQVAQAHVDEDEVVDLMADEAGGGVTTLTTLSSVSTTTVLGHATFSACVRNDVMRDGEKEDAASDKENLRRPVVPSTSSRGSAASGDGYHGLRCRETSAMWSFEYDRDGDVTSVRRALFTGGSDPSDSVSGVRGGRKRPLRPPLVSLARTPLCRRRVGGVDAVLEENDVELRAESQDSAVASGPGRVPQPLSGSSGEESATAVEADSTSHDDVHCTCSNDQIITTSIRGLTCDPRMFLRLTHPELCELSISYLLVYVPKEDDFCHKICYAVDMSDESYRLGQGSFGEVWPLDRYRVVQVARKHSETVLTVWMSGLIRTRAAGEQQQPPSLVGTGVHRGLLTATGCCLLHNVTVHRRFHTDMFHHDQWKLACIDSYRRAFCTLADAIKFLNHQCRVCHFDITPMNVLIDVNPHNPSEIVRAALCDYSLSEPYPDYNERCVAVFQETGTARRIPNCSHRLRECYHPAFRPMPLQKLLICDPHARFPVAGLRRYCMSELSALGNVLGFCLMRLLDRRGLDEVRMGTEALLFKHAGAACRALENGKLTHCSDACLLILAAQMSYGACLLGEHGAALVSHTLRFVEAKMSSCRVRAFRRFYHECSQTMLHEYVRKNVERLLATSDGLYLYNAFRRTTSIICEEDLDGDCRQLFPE
In words: GCV phosphorylation in baculovirus-infected Sf21 insect cells, K355Q. In kind it is cell-based. As for the experimental part: (§1) Sf21 insect cells were infected with wild type or mutant UL97 recombinant baculoviruses at an m.o.i. of 10. After 48 h incubation at 28°C, the culture medium was replaced with fresh medium containing 1.0 mM GCV and [^3H] GCV (0.55 Mbq, Moravek Radiochemicals, California, USA) After a further 24 hours of incubation, nucleotides were harvested by acid hydrolysis (0.5 M perchloric acid), neutralisation to pH 7.5 (2.5 M KOH, 1.5 M KH2PO4) and centrifugation (13000 × g). 50 μl aliquots of supernatant were spotted onto 20 mm diameter DEAE-coated DE81 chromatographic paper discs and the monophosphorylated GCV allowed to bind. The discs were washed twice in 3 ml 10 mM ammonium acetate for 10 minutes and twice in 95% ethanol for 10 minutes. After drying 5 ml of sigmafluor was added (Sigma Chemicals, Dorset, UK) and the radioactivity determined by liquid scintillation counting.

The target in another assay is T2, UL97 D456A (Human cytomegalovirus, UniProt Q68101, D456A).
T2 construct: PCR reaction to generate the full length UL97; honey bee melittin secretion signal (N); made in house; host or cells: Sf21 insect cells, recombinant baculovirus (pMelBac C)
T2 sequence (Q68101 1-707 D456A): T1 sequence (Q68101 1-707 K355Q) with Q355K, D456A
In words: GCV phosphorylation in baculovirus-infected Sf21 insect cells, D456A. It is filed as cell-based. On the procedure:
as §1

In the next assay the test system is UL97 N461G. In words: GCV phosphorylation in baculovirus-infected Sf21 insect cells, N461G. It is filed as cell-based, human cytomegalovirus. As for the experimental part: as §1

For the molecule `Nc1nc(O)c2ncn(COC(CO)CO)c2n1` [GCV, ganciclovir], the “GCV phosphorylation relative to wild type UL97” value on UL97 K355Q is on record as “unable to phosphorylate GCV; also recorded: complete loss of GCV kinase activity”; at UL97 D456A it was “no effect on GCV phosphorylation”; with UL97 N461G it was “complete loss of GCV kinase activity”.

Values taken from paper PMC3050433, “The effects of maribavir on the autophosphorylation of ganciclovir resistant mutants of the cytomegalovirus UL97 protein” (Herpesviridae, 2010).
